Measured values published in patent US20230322789A1, “PYRAZOLOPYRIDAZINONE COMPOUND, AND PHARMACEUTICAL COMPOSITION AND USE THEREOF” (BroadenBio Co., Ltd., priority 2020, published 2023).
Structures can show the parent of a compound that is named as a salt.

What follows are molecules tested against HPK1 (Homo sapiens (Human), UniProt Q92918) (assay: HPK1 kinase activity inhibition test (ADP-Glo, luminescence)). Settings: HPK1 5 nM, ATP 2 μM, read-out: IC50, inhibitory effects of compounds on HPK1 kinase activity.
Assay type: biochemical
Description: 1. HPK1 Kinase Activity Inhibition Test
The kinase activity of HPK1 is manifested as activity of autophosphorylation and phosphorylation of downstream substrates. In the process of autophosphorylation, additional substrates are not required, and ATP is consumed to generate ADP. The amount of the product was measured by ADP-Glo reagent and luminescence method to reflect kinase activity.
Test compounds: compounds prepared in the examples of this application.
Prepare compound stock solution: dissolve the compound to be tested in 100% DMSO to make a 10 mM stock solution;
Prepare 4× Kinase Reaction Buffer:
Prepare 2×HPK1 Kinase Solution:
Dilute the stock solution of the compound to be tested by 5 times with […], make a 4-fold equal dilution in a 96-well dilution plate, add 1 μL of the compound to 49 µL of kinase reaction buffer, and shake on a microplate shaker for 20 minutes. Transfer 2 μL of […] kinase solution to 384 reaction plate, add 1 μL of the test compound to the 384 reaction plate (Greiner, 784075), centrifuge for 1 minute (1000 rpm/min), incubate at 25° C. for 10 minutes. Transfer […] of the 4×ATP mixture to a 384 reaction plate, centrifuge for 1 minute (1000 rpm/mm), and incubate at 25° C. for 60 minutes. In the reaction system, the final concentration of DMSO was […]. Transfer 4 μL of ADP-Glo to a 384 reaction plate, centrifuge for 1 minute (1000 rpm/min), and incubate at 25° C. for 40 minutes. Transfer 8 μL detection solution to a 384 reaction plate, centrifuge for 1 minute (1000 rpm/min), and incubate at 25° C. for 40 minutes. The […] signal was read using a Biotek multi-function plate reader, and the […] (half inhibitory concentration) of the compound was obtained using a four-coefficient nonlinear fitting formula.

HPK1, sequence (Q92918 whole entry): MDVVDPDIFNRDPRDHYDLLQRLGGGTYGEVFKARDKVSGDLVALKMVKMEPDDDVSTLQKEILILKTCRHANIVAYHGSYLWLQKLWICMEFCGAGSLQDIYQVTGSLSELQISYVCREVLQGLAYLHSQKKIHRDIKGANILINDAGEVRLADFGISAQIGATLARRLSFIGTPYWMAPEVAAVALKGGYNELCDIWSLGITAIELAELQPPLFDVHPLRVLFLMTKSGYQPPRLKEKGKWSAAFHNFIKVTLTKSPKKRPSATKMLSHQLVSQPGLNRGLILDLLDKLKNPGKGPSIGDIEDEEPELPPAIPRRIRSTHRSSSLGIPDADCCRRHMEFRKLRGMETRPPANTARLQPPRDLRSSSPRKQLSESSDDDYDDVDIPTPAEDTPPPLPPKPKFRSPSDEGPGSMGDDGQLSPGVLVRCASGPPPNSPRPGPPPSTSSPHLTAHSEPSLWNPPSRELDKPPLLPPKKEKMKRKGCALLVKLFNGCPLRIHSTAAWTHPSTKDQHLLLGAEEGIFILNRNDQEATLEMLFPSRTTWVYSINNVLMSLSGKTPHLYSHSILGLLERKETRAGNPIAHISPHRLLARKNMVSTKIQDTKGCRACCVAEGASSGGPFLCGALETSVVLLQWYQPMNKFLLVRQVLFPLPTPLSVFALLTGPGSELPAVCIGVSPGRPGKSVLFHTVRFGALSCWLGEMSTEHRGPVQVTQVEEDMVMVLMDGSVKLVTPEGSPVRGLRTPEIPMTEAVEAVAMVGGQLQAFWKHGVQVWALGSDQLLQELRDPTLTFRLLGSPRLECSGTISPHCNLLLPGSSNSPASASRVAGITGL

| SMILES | IC50 |
| --- | --- |
| CN1CCN(c2ccc(-c3n[nH]c4cc(=O)n(-c5cccc6c5COC6)nc34)cc2)CC1 [Compound 75, 5-(1,3-dihydroisobenzofuran-4-yl)-3-(4-(4-methylpiperazin-1-yl)phenyl)-1H-pyrazolo[4,3-c]pyridazin-6(5H)-one] | 500 to 2000 nM |
| Cc1cccc(F)c1-n1nc2c(-c3ccc(N4CCN(C)CC4)c(CN(C)C)c3)n[nH]c2cc1=O [Compound 95, 3-(3-((dimethylamino)methyl)-4-(4-methylpiperazin-1-yl)phenyl)-5-(2-fluoro-6-methylphenyl)-1H-pyrazolo[4,3-c]pyridazin-6(5H)-one] | 50 to 500 nM |
| Cc1cccc(F)c1-n1nc2c(-c3ccc(N4CCS(=O)(=O)CC4)nc3)n[nH]c2cc1=O [Compound 104, 3-(6-(1,1-dioxidothiomorpholino)pyrid-3-yl)-5-(2-fluoro-6-methylphenyl)-1H-pyrazolo[4,3-c]pyridazin-6(5H)-one] | 50 to 500 nM |
| Cc1cccc(F)c1-n1nc2c(-c3cc(N4CCN(C)CC4)ccc3F)n[nH]c2cc1=O [Compound 208, 3-(2-fluoro-5-(4-methylpiperazin-1-yl)phenyl)-5-(2-fluoro-6-methylphenyl)-1H-pyrazolo[4,3-c]pyridazin-6(5H)-one] | ≤ 50 nM |
| COC[C@@H]1Cc2ccc(-c3n[nH]c4cc(=O)n(-c5c(C)cccc5F)nc34)cc2CN1C [Compound 180, (S)-5-(2-fluoro-6-methylphenyl)-3-(3-(methoxymethyl)-2-methyl-1,2,3,4-tetrahydroisoquinolin-7-yl)-1H-pyrazolo[4,3-c]pyridazin-6(5H)-one] | ≤ 50 nM |
| COc1cccc(F)c1-n1nc2c(-c3ccc4c(c3F)CN(C)CC4)n[nH]c2cc1=O [Compound 190, 3-(8-fluoro-2-methyl-1,2,3,4-tetrahydroisoquinolin-7-yl)-5-(2-fluoro-6-methoxyphenyl)-1H-pyrazolo[4,3-c]pyridazin-6(5H)-one] | 50 to 500 nM |
| COc1cccc(F)c1-n1nc2c(-c3ccc(N4CCN5C(=O)OCC5C4)cc3)n[nH]c2cc1=O (stereo not shown) [Compound 123, 7-(4-(5-(2-fluoro-6-methoxyphenyl)-6-oxo-5,6-dihydro-1H-pyrazolo[4,3-c]pyridazin-3-yl)phenyl)tetrahydro-1H-oxazolo[3,4-a]pyrazin-3(5H)-one] | ≤ 50 nM |
| Cc1cccc(F)c1-n1nc2c(-c3ccc4c(c3)CN(C3CCN(C)CC3)CC4)n[nH]c2cc1=O [Compound 168, 5-(2-fluoro-6-methylphenyl)-3-(2-(1-methylpiperidin-4-yl)-1,2,3,4-tetrahydroisoquinolin-7-yl)-1H-pyrazolo[4,3-c]pyridazin-6(5H)-one] | 50 to 500 nM |
| Cc1cccc(F)c1-n1nc2c(-c3ccc4c(c3)CN(C3CCOCC3)CC4)n[nH]c2cc1=O [Compound 167, 5-(2-fluoro-6-methylphenyl)-3-(2-(tetrahydro-2H-pyran-4-yl)-1,2,3,4-tetrahydroisoquinolin-7-yl)-1H-pyrazolo[4,3-c]pyridazin-6(5H)-one] | 50 to 500 nM |
| Cc1cccc(F)c1-n1nc2c(-c3ccc4c(c3)CCN(C3CCN(C)CC3)C4)n[nH]c2cc1=O [Compound 196, 5-(2-fluoro-6-methylphenyl)-3-(2-(1-methylpiperidin-4-yl)-1,2,3,4-tetrahydroisoquinolin-6-yl)-1H-pyrazolo[4,3-c]pyridazin-6(5H)-one hydrochloride] | 50 to 500 nM |
| COc1cccc(F)c1-n1nc2c(-c3ccc4c(c3)CCN(C)C4)n[nH]c2cc1=O [Compound 72, 5-(2-fluoro-6-methoxyphenyl)-3-(2-methyl-1,2,3,4-tetrahydroisoquinolin-6-yl)-1H-pyrazolo[4,3-c]pyridazin-6(5H)-one] | 50 to 500 nM |
| Cc1cc(Cl)cc(F)c1-n1nc2c(-c3ccc(N4CCN(C)CC4)cc3)n[nH]c2cc1=O [Compound 78, 5-(4-chloro-2-fluoro-6-methylphenyl)-3-(4-(4-methylpiperazin-1-yl)phenyl)-1H-pyrazolo[4,3-c]pyridazin-6(5H)-one] | 50 to 500 nM |
| COc1ccc(-n2nc3c(-c4ccc(C5CCN(C)CC5)cc4)n[nH]c3cc2=O)c(OC)c1 [Compound 26, 5-(2,4-dimethoxyphenyl)-3-(4-(1-methylpiperidin-4-yl)phenyl)-1H-pyrazolo[4,3-c]pyridazin-6(5H)-one] | 500 to 2000 nM |
| COc1cccc(F)c1-n1nc2c(-c3ccc4c(c3)CN(CC(F)F)CC4)n[nH]c2cc1=O [Compound 166, 3-(2-(2,2-difluoroethyl)-1,2,3,4-tetrahydroisoquinolin-7-yl)-5-(2-fluoro-6-methoxyphenyl)-1H-pyrazolo[4,3-c]pyridazin-6(5H)-one] | 50 to 500 nM |
| CCc1cccc(F)c1-n1nc2c(-c3cnc(N4CCN(C)CC4)nc3)n[nH]c2cc1=O [Compound 110, 5-(2-ethyl-6-fluorophenyl)-3-(2-(4-methylpiperazin-1-yl)pyrimidin-5-yl)-1H-pyrazolo[4,3-c]pyridazin-6(5H)-one] | 50 to 500 nM |
| CNCc1cc(-c2n[nH]c3cc(=O)n(-c4c(C)cccc4F)nc23)ccc1N1CCN(C)CC1 [Compound 96, 3-(3-((methylamino)methyl)-4-(4-methylpiperazin-1-yl)phenyl)-5-(2-fluoro-6-methylphenyl)-1H-pyrazolo[4,3-c]pyridazin-6(5H)-one] | 50 to 500 nM |
| CC(=O)N1CCN(c2ccc(-c3n[nH]c4cc(=O)n(-c5c(C)cccc5F)nc34)cn2)CC1 [Compound 102, 3-(6-(4-acetylpiperazin-1-yl)pyrid-3-yl)-5-(2-fluoro-6-methylphenyl)-1H-pyrazolo[4,3-c]pyridazin-6(5H)-one] | 50 to 500 nM |
| Cc1cccc(F)c1-n1nc2c(-c3cccc(N4CC5CCC(C4)N5C)c3)n[nH]c2cc1=O [Compound 201, 5-(2-fluoro-6-methylphenyl)-3-(3-(8-methyl-3,8-diazabicyclo[3.2.1]octan-3-yl)phenyl)-1H-pyrazolo[4,3-c]pyridazin-6(5H)-one] | ≤ 50 nM |
| Cc1cccc(F)c1-n1nc2c(-c3cnn(C)c3)n[nH]c2cc1=O [Compound 17, 5-(2-fluoro-6-methylphenyl)-3-(1-methyl-1H-pyrazol-4-yl)-1H-pyrazolo[4,3-c]pyridazin-6(5H)-one] | 500 to 2000 nM |
| Cc1cccc(F)c1-n1nc2c(-c3ccc4c(c3)C(CN)N(C)CC4)n[nH]c2cc1=O (stereo not shown) [Compound 186, 3-(1-(aminomethyl)-2-methyl-1,2,3,4-tetrahydroisoquinolin-7-yl)-5-(2-fluoro-6-methylphenyl)-1H-pyrazolo[4,3-c]pyridazin-6(5H)-one hydrochloride] | 500 to 2000 nM |
| Cc1ccncc1-n1nc2c(-c3ccc(N4CCN(C)CC4)cc3)n[nH]c2cc1=O [Compound 47, 3-(4-(4-methylpiperazin-1-yl)phenyl)-5-(4-methylpyrid-3-yl)-1H-pyrazolo[4,3-c]pyridazin-6(5H)-one] | 500 to 2000 nM |
| Cc1cccc(F)c1-n1nc2c(-c3cnc4c(c3)CN(C)CC4)n[nH]c2cc1=O [Compound 187, 5-(2-fluoro-6-methylphenyl)-3-(6-methyl-5,6,7,8-tetrahydro-1,6-naphthyridin-3-yl)-1H-pyrazolo[4,3-c]pyridazin-6(5H)-one] | 50 to 500 nM |
| Cc1cccc(F)c1-n1nc2c(-c3cccc(N4CCN(C)CC4)c3F)n[nH]c2cc1=O [Compound 207, 3-(2-fluoro-3-(4-methylpiperazin-1-yl)phenyl)-5-(2-fluoro-6-methylphenyl)-1H-pyrazolo[4,3-c]pyridazin-6(5H)-one] | 500 to 2000 nM |
| COc1cccc(F)c1-n1nc2c(-c3cc4c(cc3F)CCN(C)C4)n[nH]c2cc1=O [Compound 191, 3-(6-fluoro-2-methyl-1,2,3,4-tetrahydroisoquinolin-7-yl)-5-(2-fluoro-6-methoxyphenyl)-1H-pyrazolo[4,3-c]pyridazin-6(5H)-one] | 50 to 500 nM |
| COc1cnccc1-n1nc2c(-c3ccc(N4CCN(C)CC4)cc3)n[nH]c2cc1=O [Compound 153, 5-(3-methoxypyrid-4-yl)-3-(4-(4-methylpiperazin-1-yl)phenyl)-1H-pyrazolo[4,3-c]pyridazin-6(5H)-one] | 50 to 500 nM |
| Cc1cccc(F)c1-n1nc2c(-c3ccc(N4CCN(C)CC4)cc3)n[nH]c2c(C)c1=O [Compound 55, 5-(2-fluoro-6-methylphenyl)-7-methyl-3-(4-(4-methylpiperazin-1-yl)phenyl)-1H-pyrazolo[4,3-c]pyridazin-6(5H)-one] | 50 to 500 nM |
| Cc1cccc(F)c1-n1nc2c(-c3ccc(N4CCN(C)CC4=O)cc3)n[nH]c2cc1=O [Compound 12, 5-(2-fluoro-6-methylphenyl)-3-(4-(4-methyl-2-oxopiperazin-1-yl)phenyl)-1H-pyrazolo[4,3-c]pyridazin-6(5H)-one] | 500 to 2000 nM |
| CCN1CCN(c2ccc(-c3n[nH]c4cc(=O)n(-c5c(C)cccc5F)nc34)cn2)CC1 [Compound 101, 3-(6-(4-ethylpiperazin-1-yl)pyrid-3-yl)-5-(2-fluoro-6-methylphenyl)-1H-pyrazolo[4,3-c]pyridazin-6(5H)-one] | ≤ 50 nM |
